In patent US9994528B2, “Certain amino-pyridines and amino-triazines, compositions thereof, and methods for their use” (Cytokinetics, Inc., priority 2010, dated 2018):

What follows are compounds tested on rabbit skeletal myofibrils (approximately 90% fast fibers) (assay: Activation of fast skeletal myofibrils (PUMA coupled-enzyme ATPase assay)). Settings: AC1.4 = concentration at which the compound increased the enzymatic activity by 40%; myofibril suspension at calcium level pCa25; PM12 buffer pH 6.8.
Assay type: biochemical
Description: Preparation of fast skeletal myofibrils. Rabbit skeletal myofibrils were prepared based upon the method of Herrmann et al. (Biochem. 32(28):7255-7263(1993). Myofibrils were prepared from rabbit psoas muscle purchased from Pel-Freez Biologicals (Arkansas) within 2 days of ordering, stored on ice. Minced muscle was homogenized in 10 volumes of ice-cold “standard” buffer (50 mM Tris, pH 7.4, 0.1 M potassium acetate, 5 mM KCl, 2 mM DTT, 0.2 mM PMSF, 10 μM leupeptin, 5 μM pepstatin, and 0.5 mM sodium azide) containing 5 mM EDTA and 0.5% Triton X-100 using an Omni-Macro homogenizer. Myofibrils were recovered by low speed centrifugation (3000 rpm for 10 minutes) and washed 2 times in the Triton X-100 containing buffer to ensure removal of cellular membrane. Following the Triton washes, myofibrils were washed 3 times in “standard” buffer containing 2 mM magnesium acetate. A final wash in assay buffer (12 mM PIPES, pH 6.8, 60 mM KCl, 1 mM DTT) was performed and brought to 10% sucrose for flash freezing in liquid nitrogen and storage at −80° C.
Activation of Fast Skeletal Myofibrils. Fast fiber activators were identified by measuring the enzymatic activity of muscle myofibril preparations using the proprietary PUMA™ (see, e.g., U.S. Pat. Nos. 6,410,254, 6,743,599, 7,202,051, and 7,378,254) assay system. Myofibril preparations consisted of rabbit skeletal muscle (approximately 90% fast fibers) that had been mechanically homogenized and washed with a detergent (triton X-100) to remove cellular membranes. This preparation retained all of the sarcomeric components in a native conformation and the enzymatic activity was still regulated by calcium. Compounds were tested using a myofibril suspension and a level of calcium sufficient to increase enzymatic activity of the myofibrils to 25% of their maximal rate (termed pCa25). Enzymatic activity was tracked via a pyruvate kinase and lactate dehydrogenase-coupled enzyme system. This assay regenerates myosin-produced ADP into ATP by oxidizing NADH, producing an absorbance change at 340 nm. The buffering system was 12 mM Pipes, 2 mM MgCl2, 1 mM DTT at pH 6.8 (PM12 buffer).
Using procedures similar to those described herein, utilizing reagents and intermediates commercially available (e.g., Sigma-Aldrich,) or readily synthesized by one of skill in the art, the compounds in Table 2 were synthesized, characterized and tested. AC1.4 values were determined according to the procedure described in Example 25, and the reported median AC1.4 values are as follows: A=<1 uM; B=1-10 uM; C=10-20 uM; D=>20 uM.

| Compound | Mean AC1.4 |
| --- | --- |
| CC(C)(Nc1ncc(-c2cccc(C(N)=O)c2)nn1)c1ncccc1F [3-(3-{[1-(3-fluoro(2-pyridyl))-isopropyl]amino}-1,2,4-triazin-6-yl)benzamide] | B (B=1-10 uM) |
| CC(C)(CNc1cccc(Br)n1)c1ccc(F)cc1 [(6-bromo(2-pyridyl))[2-(4-fluorophenyl)-2-methylpropyl]amine] | C (C=10-20 uM) |
| CNC(=O)c1ccc(O)c(-c2cnc(NC[C@]3(c4ncccc4F)C[C@H](F)C3)nn2)c1 [{3-[3-({[3-fluoro-1-(3-fluoro(2-pyridyl))cyclobutyl]methyl}amino)(1,2,4-triazin-6-yl)]-4-hydroxyphenyl}-N-methylcarboxamide] | A (A=<1 uM) |
| CC(C)(Nc1ncc(-c2ncc(C(N)=O)s2)nn1)c1cccc(OC(F)F)n1 [2-[3-({1-[6-(difluoromethoxy)(2-pyridyl)]-isopropyl}amino)-1,2,4-triazin-6-yl]-1,3-thiazole-5-carboxamide] | B (B=1-10 uM) |
| NC(=O)c1cccc(-c2ccc(NC(=O)Cc3ccc(F)cc3)nc2)c1 [3-{6-[2-(4-fluorophenyl)acetylamino]-3-pyridyl}benzamide] | D (D=>20 uM) |
| O=C(O)c1ccc(F)c(-c2cnc(NCC3(c4ncccc4Cl)CCC3)nn2)c1 [3-[3-({[(3-chloro(2-pyridyl))cyclobutyl]methyl}amino)(1,2,4-triazin-6-yl)]-4-fluorobenzoic acid] | A (A=<1 uM) |
| CC(C)(Nc1ncc(-c2cc(CNC(=O)CN)ccc2F)nn1)c1ncccc1F [2-amino-N-{[4-fluoro-3-(3-{[1-(3-fluoro(2-pyridyl))-isopropyl]amino}(1,2,4-triazin-6-yl))phenyl]methyl}acetamide] | B (B=1-10 uM) |
| NCc1cnc(-c2cnc(NC[C@]3(c4ncccc4F)C[C@H](F)C3)nn2)s1 [{6-[5-(aminomethyl)(1,3-thiazol-2-yl)](1,2,4-triazin-3-yl)}{[3-fluoro-1-(3-fluoro(2-pyridyl))cyclobutyl]methyl}amine] | B (B=1-10 uM) |
| NC(=O)c1cnn(-c2cnc(NCC3(c4ncccc4F)CCC3)nn2)c1 [1-[3-({[(3-fluoro-2-pyridyl)cyclobutyl]methyl}amino)-1,2,4-triazin-6-yl]pyrazole-4-carboxamide] | B (B=1-10 uM) |
| NC(=O)c1cccc(-c2cnc(NC[C@]3(c4ncccc4Cl)C[C@H](F)C3)nn2)c1 [3-[3-({[1-(3-chloro(2-pyridyl))-3-fluorocyclobutyl]methyl}amino)-1,2,4-triazin-6-yl]benzamide] | A (A=<1 uM) |
| NC(=O)c1ccc(F)c(-c2cnc(NCC3(c4ncccc4Cl)CCC3)nn2)c1 [3-[3-({[(3-chloro(2-pyridyl))cyclobutyl]methyl}amino)(1,2,4-triazin-6-yl)]-4-fluorobenzamide] | A (A=<1 uM) |
| NC(=O)c1cccc(-c2cnc(NC[C@]3(c4ncccc4F)C[C@H](F)C3)c(F)c2)c1 [3-[5-fluoro-6-({[3-fluoro-1-(3-fluoro(2-pyridyl))cyclobutyl]methyl}amino)-3-pyridyl]benzamide] | B (B=1-10 uM) |
| CC(C)(CNc1ccc(C#N)cn1)c1ccc(F)cc1 [6-{[2-(4-fluorophenyl)-2-methylpropyl]amino}pyridine-3-carbonitrile] | C (C=10-20 uM) |
| CC(C)(CNc1ccc(-c2cccc(C(N)=O)c2)cn1)c1ccc(F)cc1 [3-(6-{[2-(4-fluorophenyl)-2-methylpropyl]amino}-3-pyridyl)benzamide] | A (A=<1 uM) |
| CNC(=O)c1ccc(F)c(-c2cnc(NC[C@]3(c4ncccc4F)C[C@H](F)C3)nn2)c1 [{4-fluoro-3-[3-({[3-fluoro-1-(3-fluoro(2-pyridyl))cyclobutyl]methyl}amino)(1,2,4-triazin-6-yl)]phenyl}-N-methylcarboxamide] | B (B=1-10 uM) |
| CC(C)(Nc1ncc(-c2ccc(F)c(C(N)=O)c2)nn1)c1ncccc1F [2-fluoro-5-(3-{[1-(3-fluoro(2-pyridyl))-isopropyl]amino}(1,2,4-triazin-6-yl))benzamide] | D (D=>20 uM) |

| Compound | Mean AC1.4 |
| --- | --- |
| CC(C)=Cc1cccc(NCC(C)(C)c2ccc(F)cc2)n1 [[2-(4-fluorophenyl)-2-methylpropyl][6-(2-methylprop-1-enyl)(2-pyridyl)]amine] | D (D=>20 uM) |
| CC(C)(CNc1ccc(C(N)=O)cn1)c1ccc(F)cc1 [6-{[2-(4-f1uorophenyl)-2-methylpropyl]amino}pyridine-3-carboxamide] | C (C=10-20 uM) |
| CC(C)(CNc1ccc(CC(O)CO)cn1)c1ccc(F)cc1 (centres unmarked) [3-(6-{[2-(4-fluorophenyl)-2-methylpropyl]amino}-3-pyridyl)propane-1,2-diol] | D (D=>20 uM) |
| CC(C)(C)Nc1ncc(-c2cc(C(N)=O)ccc2F)nn1 [3-{3-[(tert-butyl)amino](1,2(4-triazin-6-yl)}-4-fluorobenzamide] | D (D=>20 uM) |
| COC(=O)c1ccc(F)c(-c2cnc(NCC3(c4ncccc4Cl)CCC3)nn2)c1 [methyl 3-[3-({[(3-chloro(2-pyridyl))cyclobutyl]methyl}amino)(1,2,4-triazin-6-yl)]-4-fluorobenzoate] | B (B=1-10 uM) |
| NC(=O)c1ccc(F)c(-c2cnc(NCC3(c4ccccn4)CCC3)nn2)c1 [4-fluoro-3-(3-{[(2-pyridylcyclobutyl)methyl]amino}(1,2,4-triazin-6-yl))benzamide] | B (B=1-10 uM) |
| OCc1cnc(-c2cnc(NC[C@]3(c4ncccc4F)C[C@H](F)C3)nn2)s1 [{2-[3-({[3-fluoro-1-(3-fluoro(2-pyridyl))cyclobutyl]methyl}amino)-1,2,4-triazin-6-yl]-1,3-thiazol-5-yl}methan-1-ol] | B (B=1-10 uM) |
| CC(C)(Nc1ncc(-c2cc(C#N)ccc2F)nn1)c1cccc(C(F)F)n1 [3-[3-({1-[6-(difluoromethyl)(2-pyridyl)]-isopropyl}amino)(1,2,4-triazin-6-yl)]-4-fluorobenzenecarbonitrile] | B (B=1-10 uM) |
| CC(C)(CNc1ncc(-c2ccc3[nH]ncc3c2)nn1)c1ncccc1F [(6-(1H-indazol-5-yl)(1,2,4-triazin-3-yl))[2-(3-fluoro(2-pyridyl))-2-methylpropyl]amine] | C (C=10-20 uM) |
| N#Cc1cc(-c2cnc(NCC3(c4ncccc4F)CCC3)nn2)ccc1F [2-fluoro-5-[3-({[(3-fluoro(2-pyridyl))cyclobutyl]methyl}amino)(1,2,4-triazin-6-yl)]benzenecarbonitrile] | C (C=10-20 uM) |
| NC(=O)c1ccc(F)c(-c2cnc(NCC3(c4ncccc4Cl)CC(F)(F)C3)nn2)c1 [3-[3-({[1-(3-chloro(2-pyridyl))-3,3-difluorocyclobutyl]methyl}amino)(1,2,4-triazin-6-yl)]-4-fluorobenzamide] | A (A=<1 uM) |
| CC(C)(CNc1cnc(-c2cccc(C(N)=O)c2)nn1)c1ccc(F)cc1 [3-(6-{[2-(4-fluorophenyl)-2-methylpropyl]amino}-1,2,4-triazin-3-yl)benzamide] | B (B=1-10 uM) |
| O=C(O)c1ccc(F)c(-c2cnc(NCC3(c4ncccc4F)CCC3)nn2)c1 [4-fluoro-3-[3-({[(3-fluoro(2-pyridyl))cyclobulyl]methyl}amino)(1,2,4-triazin-6-yl)]benzoic acid] | B (B=1-10 uM) |
| NC(=O)c1cccc(-c2cnc(NC[C@]3(c4ncccc4F)C[C@H](F)C3)nn2)c1 [3-[3-({[3-fluoro-1-(3-fluoro(2-pyridyl))cyclobutyl]methyl}amino)-1,2,4-triazin-6-yl]benzamide] | A (A=<1 uM) |
| CC(C)(Nc1ncc(-c2cc(CO)ccc2F)nn1)c1ncccc1F [[4-fluoro-3-(3-{[1-(3-fluoro(2-pyridyl))-isopropyl]amino}(1,2,4-triazin-6-yl))phenyl]methan-1-ol] | C (C=10-20 uM) |
| CC(C)(Nc1ncc(-c2cc(C(N)=O)ccc2F)nn1)c1cccc(OC(F)F)n1 [3-[3-({1-[6-(difluoromethoxy)(2-pyridyl)]-isopropyl}amino)(1,2,4-triazin-6-yl)]-4-fluorobenzamide] | A (A=<1 uM) |
